In EP0429333B1, “Process for producing oxazopyrroloquinolines, novel oxazopyrroloquinolines, and use of oxazopyrroloquinolines” (priority 1989, dated 1991):

How the values were obtained:
[1] = biological target: aldose reductase of kidney (Canis lupus familiaris, UniProt A0A8I3P2L6); assay: Inhibitory effect on aldose reductase of kidney; type: biochemical, dog; details: read-out: Degree of inhibition for aldose reductase (%); for inhibition at 1 µM: concentration 1x10^-6 M
Protocol: Medulla of kidney of dog was homogenized with 10mM phosphoric acid buffer (pH 7.0) containing 2mM dithiothreitol in an amount of four times the volume of kidney medulla and subjected to centrifugation. The supernatant liquid was purified by affinity chromatography, gel filtration and chromatofocusing to obtain electrophoretically homogeneous aldose reductase. 0.05 ml of 3mM NADPH, 0.1 ml of DL-glyceraldehyde and 0.04 ml of distilled water were added to 0.8 ml of 0.1M phosphoric acid buffer (pH 6.2) and left to stand at 25°C for 3 minutes. Then, 0.01 ml of the aldose reductase solution was added thereto to start reaction and decreasing of absorbance of 340 nm was measured at 25°C with time. Amount of enzyme which consumes 1 µmole of NADPH for 1 minute was taken as 1 unit.

[2] = biological target: T1, aldose reductase of rabbit lens (Oryctolagus cuniculus, UniProt P15122); assay: Inhibitory effect on aldose reductase of lens; type: biochemical; details: read-out: Degree of inhibition for aldose reductase (%); for inhibition at 1 µM: concentration 1x10^-6 M; for inhibition at 0.5 µM: concentration 5x10^-7 M
T1 construct: to obtain electrophoretically homogeneous aldose reductase; from tissue; host or cells: rabbit lens
Protocol: 0.05 ml of 3mM NADPH, 0.1 ml of DL-glyceraldehyde and 0.04 ml of distilled water were added to 0.8 ml of 0.1M phosphoric acid buffer (pH 6.2) and left to stand at 25°C for 3 minutes. Then, 0.01 ml of the aldose reductase solution was added thereto to start reaction and decreasing of absorbance of 340 nm was measured at 25°C with time. Amount of enzyme which consumes 1 µmole of NADPH for 1 minute was taken as 1 unit.
Enzyme activity was measured under the same conditions as in the above measurement of aldose reductase activity except that 0.04 ml of aqueous solution of inhibitory substance in various concentrations was added in place of 0.04 ml of distilled water and degree of inhibition was calculated from comparison of the enzyme activity with the enzyme activity obtained in the absence of inhibitor. (1) OPQ, (2) methyl OPQ, (3) 1-methylpropyl OPQ, (4) 2-methylpropyl OPQ, (5) 2-carbamoylethyl OPQ, (6) hydroxymethyl OPQ, (7) 2-methylthioethyl OPQ, (8) 2-carboxyethyl OPQ, (9) 4-hydroxybenzyl OPQ, (10) 1-methylethyl OPQ, and (11) benzyl OPQ were used as inhibition substances and (12) PQQ was used as control.
Lens of rabbit was homogenized with 10mM phosphoric acid buffer (pH 7.0) containing 2mM dithiothreitol in an amount of two times the volume of the lens and subjected to centrifugation. The supernatant liquid was purified by affinity chromatography, gel filtration and chromatofocusing to obtain electrophoretically homogeneous aldose reductase. Using (1) OPQ, (2) 1-methylpropyl OPQ, (3) 2-methylpropyl OPQ, (4) hydroxymethyl OPQ, and (5) 1-methylethyl OPQ as inhibition substances, degree of inhibition of these substances for aldose reductase of rabbit lens was examined in the same manner in Example 32.

[3] = Solubility of the isolated compound, described in words; type: physicochemical; details: for solubility in water / solubility under neutral and alkaline conditions: water

inhibition at 1 µM [1] [%]	inhibition at 2 µM ([1]; concentration 2x10^-6 M) [%]	inhibition at 5 µM ([1]; concentration 5x10^-6 M) [%]	inhibition at 1 µM [2] [%]	inhibition at 2 µM ([2]; concentration 2x10^-6 M) [%]	inhibition at 5 µM ([2]; concentration 5x10^-6 M) [%]	inhibition at 0.5 µM [2] [%]	solubility in acetone and diethyl ether [3]	solubility in lower alcohols [3]	solubility in water [3]	solubility under neutral and alkaline conditions [3]	inhibition at 0.2 µM ([1]; concentration 2x10^-7 M) [%]	inhibition at 0.5 µM ([1]; concentration 5x10^-7 M) [%]	inhibition at 0.1 µM ([2]; concentration 1x10^-7 M) [%]	inhibition at 0.2 µM ([2]; concentration 2x10^-7 M) [%]	Structure (SMILES)
30.5	48.1	68.2	43.3	51.9	68.4	33	did not dissolve	dissolved	easily soluble	very easily soluble					CC(C)c1nc2c3nc(C(=O)O)cc(C(=O)O)c3c3[nH]c(C(=O)O)cc3c2o1 [1-Methylethyl OPQ, 5-(1-Methylethyl)-2,8,10-tricarboxy-1H-oxazo[5,4-h]-pyrrolo[2,3-f]quinoline]
63.1			69.8			57.2	did not dissolve	dissolved	easily soluble	very easily soluble	30.2	44.1	27	34.9	CC(C)Cc1nc2c3nc(C(=O)O)cc(C(=O)O)c3c3[nH]c(C(=O)O)cc3c2o1 [2-Methylpropyl OPQ, 5-(2-Methylpropyl)-2,8,10-tricarboxy-1H-oxazo[5,4-h]-pyrrolo[2,3-f]quinoline]
